Data: ChEMBL document CHEMBL5154831 (J Med Chem, 2022)
Values after ≈ are worked out from the molar mass of the structure shown.

Experiments:
[1] = Toxicity in wild type mouse assessed as effect on kidney size; conditions: in vivo
[2] = Toxicity in wild type mouse assessed as effect on body weight; conditions: in vivo
[3] = Elimination rate constant in C57BL/6 mouse at 2 mg/kg, sc by LC-MS analysis; type: ADME, organism-based; conditions: in vivo
[4] = Half life in C57BL/6 mouse at 2 mg/kg, sc by LC-MS analysis; type: ADME, organism-based; conditions: in vivo
[5] = Tmax in C57BL/6 mouse at 2 mg/kg, sc by LC-MS analysis; type: ADME, organism-based; conditions: in vivo
[6] = Cmax in C57BL/6 mouse at 2 mg/kg, sc by LC-MS analysis; type: ADME, organism-based; set-up: dose 2 mg/kg, route sc; conditions: in vivo
[7] = AUC (0 to t) in C57BL/6 mouse at 2 mg/kg, sc by LC-MS analysis; type: ADME, organism-based; set-up: dose 2 mg/kg, route sc; conditions: in vivo
[8] = Equilibrium solubility of compound in water incubated for 24 hrs by UV-spectroscopy method; type: physicochemical
[9] = target: Vasopressin V2 receptor (Homo sapiens, UniProt P30518); assay: Displacement of conivaptan-red from SNAP-tagged V2 receptor (unknown origin) expressed in HEK293 cells assessed as inhibition constant measured after 2 hrs by HTRF assay; type: cell-based
[10] = target: Vasopressin V2 receptor (Rattus norvegicus) (UniProt Q00788); assay: Ex vivo receptor occupancy at V2R in isolated perfused Sprague-Dawley rat kidney assessed as dissociation half life at 0.1 uM incubated for 30 mins by LC-MS analysis; type: functional, tissue-based
[11] = Toxicity in wild type mouse assessed as effect on body weight at 2 mg/kg; type: organism-based; conditions: in vivo

Vasopressin V2 receptor, sequence (P30518 whole entry, the tested form may be a part): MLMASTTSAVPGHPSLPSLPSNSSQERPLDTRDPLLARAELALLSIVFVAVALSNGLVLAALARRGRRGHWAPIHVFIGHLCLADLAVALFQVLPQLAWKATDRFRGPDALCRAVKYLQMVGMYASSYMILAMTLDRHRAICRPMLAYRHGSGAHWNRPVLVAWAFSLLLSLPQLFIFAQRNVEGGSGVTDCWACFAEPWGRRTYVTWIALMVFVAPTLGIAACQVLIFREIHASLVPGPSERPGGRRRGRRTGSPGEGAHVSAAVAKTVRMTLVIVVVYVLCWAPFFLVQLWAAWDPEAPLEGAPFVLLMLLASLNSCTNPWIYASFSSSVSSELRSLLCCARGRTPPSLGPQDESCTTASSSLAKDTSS
Vasopressin V2 receptor (Rattus norvegicus), sequence (Q00788 whole entry, the tested form may be a part): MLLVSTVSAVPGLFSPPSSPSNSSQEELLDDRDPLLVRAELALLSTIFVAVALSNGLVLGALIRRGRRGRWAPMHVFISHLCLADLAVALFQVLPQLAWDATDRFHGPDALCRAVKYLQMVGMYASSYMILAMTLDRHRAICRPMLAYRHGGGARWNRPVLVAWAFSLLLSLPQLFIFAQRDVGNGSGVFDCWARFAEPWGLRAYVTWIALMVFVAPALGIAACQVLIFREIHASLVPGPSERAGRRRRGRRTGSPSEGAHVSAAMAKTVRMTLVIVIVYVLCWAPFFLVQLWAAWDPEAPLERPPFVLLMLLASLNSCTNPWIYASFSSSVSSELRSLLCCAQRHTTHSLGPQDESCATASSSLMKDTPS

Row | SMILES | Activity [1] | Activity [2] | k el [3] [s⁻¹] | half-life [4] [min] | Tmax [5] [min] | Cmax [6] [ng/mL] | AUC(0-t) [7] [ng·h/mL] | solubility thermodynamic at 24 h [8] [µg/mL] | Ki [9] [nM] | T1/2 [10] [min] | Activity [11]
1 | Cc1ccccc1C(=O)Nc1ccc(C(=O)N2CCCC(NCCN3CCOCC3)c3cc(Cl)ccc32)c(C)c1 (stereo not drawn) | Non-Toxic | Non-Toxic | 0.000417 | 28.2 | 4.98 | 679 | 544 | 2.3 (≈ 4.1 µM) |  |  | 
2 | Cc1ccccc1C(=O)Nc1ccc(C(=O)N2CCCC(NCCCCN3CCOCC3)c3cc(Cl)ccc32)c(C)c1 (stereo not drawn) | Non-Toxic | Non-Toxic | 3.89e-05 | 324 | 4.98 | 365 | 514 | 2.3 (≈ 3.9 µM) |  |  | 
3 | Cc1ccccc1C(=O)Nc1ccc(C(=O)N2CCCC(NCCCN3CCCCC3)c3cc(Cl)ccc32)c(C)c1 (stereo not drawn) | Non-Toxic | Non-Toxic | 5e-05 | 234 | 19.8 | 419 | 1110 | 2.3 (≈ 4.01 µM) |  |  | 
4 | Cc1ccccc1C(=O)Nc1ccc(C(=O)N2CCCC(NCCCCCN3CCOCC3)c3cc(Cl)ccc32)c(C)c1 (stereo not drawn) | Non-Toxic | Non-Toxic | 2.58e-05 | 450 | 8.4 | 157 | 450 | 2.3 (≈ 3.81 µM) |  |  | 
5 | Cc1ccccc1C(=O)Nc1ccc(C(=O)N2CCCC(NCCCN3CCN(C)CC3)c3cc(Cl)ccc32)c(C)c1 (stereo not drawn) | Non-Toxic | Non-Toxic | 2.75e-05 | 420 | 4.98 | 518 | 588 | 2.3 (≈ 3.91 µM) |  |  | 
6 | Cc1ccccc1C(=O)Nc1ccc(C(=O)N2CCCC(NCCCc3ccncc3)c3cc(Cl)ccc32)c(C)c1 (stereo not drawn) | Non-Toxic | Non-Toxic | 0.000361 | 32 | 16.7 | 360 | 565 | 2.3 (≈ 4.06 µM) |  |  | 
7 | CCN(CC)CCCNC1CCCN(C(=O)c2ccc(NC(=O)c3ccccc3C)cc2C)c2ccc(Cl)cc21 (stereo not drawn) | Non-Toxic | Non-Toxic | 8.33e-05 | 174 | 11.4 | 426 | 527 | 2.3 (≈ 4.1 µM) | 31 |  | 
8 | Cc1ccccc1C(=O)Nc1ccc(C(=O)N2CCCC(O)c3cc(Cl)ccc32)c(C)c1 (stereo not drawn) [TOLVAPTAN] | Non-Toxic | Non-Toxic | 4.72e-05 | 246 | 49.8 | 394 | 824 | 2.3 (≈ 5.12 µM) |  | 23 | 
9 | Cc1ccccc1C(=O)Nc1ccc(C(=O)N2CCCC(NCCC(=O)N3CCOCC3)c3cc(Cl)ccc32)c(C)c1 (stereo not drawn) | Non-Toxic | Non-Toxic | 0.000667 | 17.4 | 8.4 | 783 | 450 | 2.3 (≈ 3.9 µM) |  |  | 
10 | Cc1ccccc1C(=O)Nc1ccc(C(=O)N2CCCC(NCCCN3CCOCC3)c3cc(Cl)ccc32)c(C)c1 (stereo not drawn) | Non-Toxic | Non-Toxic | 4.72e-05 | 258 | 15 | 453 | 817 | 2.3 (≈ 4 µM) |  |  | Non-Toxic
